Measured values reported in ChEMBL document CHEMBL5727053, “Muscarinic M1 receptor positive allosteric modulators” (2019).

Molecular target: T1, Muscarinic acetylcholine receptor M1 (Homo sapiens, UniProt P11229)
T1 sequence (P11229 whole entry): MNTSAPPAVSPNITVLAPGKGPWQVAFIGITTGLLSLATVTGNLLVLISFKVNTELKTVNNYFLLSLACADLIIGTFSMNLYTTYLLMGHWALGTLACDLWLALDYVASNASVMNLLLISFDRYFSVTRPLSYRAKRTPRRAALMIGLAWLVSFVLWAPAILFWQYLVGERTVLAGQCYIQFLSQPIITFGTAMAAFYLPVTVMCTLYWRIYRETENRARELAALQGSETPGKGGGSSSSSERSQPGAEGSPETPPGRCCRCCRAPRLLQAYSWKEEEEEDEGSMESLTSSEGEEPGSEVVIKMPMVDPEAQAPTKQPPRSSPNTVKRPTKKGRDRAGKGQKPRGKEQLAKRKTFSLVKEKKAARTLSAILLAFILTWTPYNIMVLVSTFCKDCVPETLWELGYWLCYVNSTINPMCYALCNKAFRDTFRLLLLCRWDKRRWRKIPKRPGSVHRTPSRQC
Assay: Determination of Allosteric Potency EC50 Values for Muscarinic M1 Receptor: A stable CHO cell line expressing recombinant human Muscarinic M1 receptor and pCRE-Luc reporter system was used for cell-based assay. The assay offers a non-radioactive based approach to determine binding of a compound to GPCRs. In this specific assay, the level of intracellular cyclic AMP which is modulated by activation or inhibition of the receptor is measured. The recombinant cells harbor luciferase reporter gene under the control of cAMP response element.The above cells were grown in 96 well clear bottom white plates in Hams F12 medium containing 10% fetal bovine serum (FBS). Prior to the addition of compounds or standard agonist, cells were serum starved overnight. Increasing concentrations of test compounds were added along with EC20 of acetylcholine in OptiMEM medium to the cells. The incubation was continued at 37° C. in CO2 incubator for 4 hours. Medium was removed and cells were washed with phosphate buffered saline. The cells were lysed and luciferase activity was measured in a Luminometer. Luminescence units were plotted against the compound concentrations using Graphpad software. EC50 values of the compounds were defined as the concentration required in stimulating the luciferase activity by 50% in presence of EC20 of acetylcholine.

Structure (SMILES): O=C(N[C@H]1CCCC[C@@H]1O)C1=CN(Cc2ccccc2)c2cccnc2O1
- EC50: 1000 nM
